# B1: ArsRFlagN-6His protein: recombinant E. coli ArsR regulator protein with N-terminal Flag peptide and polyhistidine tail (protein)
# chain: MDYKDDDDKGSFLLPIQLFKILADETRLGIVLLLSELGELCVCDLCTALDQSQPKISRHLALLRESGLLLDRKQGKWVHYRLSPHIPAWAAKIIDEAWRCEQEKVQAIVRNLARQNCSGDSKNISSHHHHHH
# modifications: ArsRFlagN-6His protein
# notes: recombinant E. coli ArsR regulator protein with N-terminal Flag peptide and polyhistidine tail
# Key:
# [1] = test system: human; details: ingestion; cited from earlier work
# [2] = target: T1, ArsRFlagN protein (SEQ ID NO. 9) bound to Opars1 DNA fragment (Escherichia coli, UniProt P37309); test: ELISA arsenic assay: ArsRFlagN protein remaining bound to Opars1 DNA fragment on streptavidin microplate, luminescence (CDP*); type: binding, Escherichia coli K12 strain MG1655; details: 60 min 25° C.
# T1 construct: made in house; host or cells: Escherichia coli M15[pREP4] with plasmid pQEarsRFlagN (pQE70)
# T1 sequence (P37309 with tags, fused parts or gaps): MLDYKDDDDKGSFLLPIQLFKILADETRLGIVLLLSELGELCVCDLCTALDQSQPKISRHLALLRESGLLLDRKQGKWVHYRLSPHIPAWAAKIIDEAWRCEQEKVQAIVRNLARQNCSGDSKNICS
# Protocol: Different dilutions of arsenic solution to be assayed are added (4), the arsenic binds to the ArsR protein (5) that is separated from its site. These proteins are eliminated by washing. Only the ArsR proteins that have not bound arsenic remain attached to the DNA (6).
# A specific antibody of the Flag sequence is added (7). That antibody binds the Flag sequence of the ArsR protein bound to the DNA. The antibody is coupled with an enzyme, alkaline phosphatase for example. Any antibodies not bound are eliminated by washing.
# A substrate of the enzyme is added in the wells. Light is emitted when the substrate is cleaved by the enzyme (8). […] The quantity of arsenic contained in the sample is obtained by comparing the results with a standard curve.
# In this example, the used DNA fragment containing the binding site of the ArsR protein is composed of 254 base pairs (SEQ ID NO. 1, called “Opars1” herein). Opars1 sequence has been obtained by PCR (DNA polymerase chain reaction) amplification using the primers Opars1L (SEQ ID NO. 2) and Opars1R (SEQ ID NO. 3). The chromosomal DNA of the Escherichia coli K12 bacteria strain MG1655 (ATCC 47076) was used as a template for the PCR amplification. Biotin was added on the nucleotide at position 5′ during synthesis of the Opars1L primer. Biotinylated Opars1 sequences, that is to say sequences with a biotin in position 5′, were thus obtained.
# A “NUNC Immobilizer (trademark) Streptavidin” microplate (Nunc Streptavidin Microplate, Dominique Dutscher (ref. 056212), Brumath, France) with 96 wells with a useful volume of 100 μl each and whose surface is functionalized with streptavidin, was used. The wells of this microplate were washed three times using 300 μl of PBST solution.
# A solution containing Opars1 DNA fragments was diluted in PBS solution to obtain a DNA concentration of 0.2 μM. 100 μl of that solution were placed in each well of the “NUNC Immobilizer (trademark) Streptavidin” microplate. The microplate was incubated for 60 minutes at 25° C., to enable binding of the DNA in the wells.
# (§1) The unbound DNA was eliminated by three successive washes using 300 μl of PBST per well.
# The ArsR protein of sequence SEQ ID NO. 4 corresponds to the protein that regulates the Ars operon of Escherichia coli K12 strain MG1655. The arsR gene of sequence SEQ ID NO. 5 coding that protein was amplified from the chromosomal DNA of that strain using the primers arsRR (SEQ ID NO. 6) and arsRL (SEQ ID NO. 7), and cloned in expression vector pQE70 (Qiagen) according to the protocol described in the document “The QiaExpressionist: A handbook for high-level expression and purification of 6×His-tagged proteins. June 2003. Fifth ed., Qiagen” [12]. A Flag sequence (SEQ ID NO. 10) was inserted in the N-terminal region of the ArsR protein and named “ArsRFlagN” (SEQ ID NO. 9). The Flag sequence is recognized by anti-Flag antibodies (Ref. A9469, Sigma Aldrich, Saint-Quentin Fallavier, France). This addition will allow detecting and assaying the ArsR protein more efficiently.
# The 200 μg of ArsRFlagN proteins produced were diluted to 1/100 in PBST buffer. 100 μl of that solution were added in each of the assay wells. The microplate was incubated for 60 minutes at 25° C., to enable the attachment of the ArsRFlagN proteins on the DNA in the wells. The amount of ArsRFlagN proteins added per well was estimated at about 0.4 μg.
# (§2) The unbound proteins were eliminated by three successive washes using 300 μl of PBST per well.
# A DNA fragment containing the ArsR protein binding site was attached to a support in the same way as that set out in example 2 above.
# A solution containing the ArsR protein was added according to the protocol presented in example 3 above, to enable the protein to bind with the DNA.
# 6 dilutions of arsenic solution, at 0.375 μg/L, 0.750 μg/L, 1.875 μg/L, 7.500 μg/L, 18.750 μg/L and 37.500 μg/L respectively, were prepared in PBS to provide a standard range. […]
# [3] = target: T2, ArsRFlagN-6His protein (SEQ ID NO. 22) bound to Pars2Lbio/Pars2R DNA fragment (Escherichia coli, UniProt P37309); test: ELISA arsenic assay: ArsRFlagN-6His protein remaining bound to Pars2Lbio/Pars2R DNA fragment on streptavidin microplate, luminescence (CDP*); type: binding; details: 60 min 25° C.
# T2 construct: made in house; host or cells: Escherichia coli C43(DE3) pLysS, vector pET28b(+)
# T2 sequence (P37309 with tags, fused parts or gaps): B1 chain
# Protocol: In this example, the used DNA fragment containing the binding site of the ArsRFlagN-6His protein (SEQ ID NO. 22) is composed of a fragment of 41 biotinylated bases in position 5′ (SEQ ID NO. 25, named “Pars2Lbio”) hybridized to a further DNA fragment with 33 bases (SEQ ID NO 26, named “Pars2R”). The sequences Pars2Lbio and Pars2R were obtained by chemical synthesis (Eurofins MWG Operon, Ebersberg, Germany).
# The biotinylated oligonucleotide (“Pars2Lbio”) was used at a concentration of 1 to 10 nM. The complementary oligonucleotide (“Pars2R”) was added in excess to enhance formation of the double strand. It was diluted in PBST buffer (between 1 and 10 nM, ideally 5, for the biotinylated oligonucleotide; between 4 and 40 nM, ideally 20, for the complementary oligonucleotide). The mixture was heated for one minute at 65° C. to eliminate any secondary structures that could have been formed by each oligonucleotide.
# A “NUNC Immobilizer (trademark) Streptavidin” microplate (Nunc Streptavidin Microplate, Dominique Dutscher (ref. 056212), Brumath, France) with 96 wells with a useful volume of 100 μl each and whose surface is functionalized with streptavidin, was used. The wells in the microplate were washed three times using of 300 μl of PBST solution.
# The DNA solution was then distributed in the microplate wells (100 μl per well). The microplate was placed at 25° C. for one hour to enable binding of the DNA fragments thanks to the biotin-streptavidin affinity.
# as §1
# 100 μl of PBSTLE solution were added in the microplate wells. The microplate was incubated for 60 minutes at 25° C. to enable non-specific binding of the milk proteins on the bottom and the walls of the well. This step limits non-specific binding of the ArsRFlagN-6His protein (SEQ ID NO. 22) and the conjugated anti-Flag antibodies (Ref. A9469, Sigma Aldrich, Saint-Quentin Fallavier, France). The unbound proteins were eliminated by three successive washes of the well using 300 μl of PBST buffer.
# A solution of ArsRFlagN-6His protein (SEQ ID NO. 22) at 1 μg/ml was prepared in PBST buffer. 100 μl of this solution were added in each of the assay wells. The microplate was incubated for 60 minutes at 25° C., to enable the ArsRFlagN-6His proteins to bind with the DNA in the wells.
# as §2
# The DNA fragment defined in example 6 and containing the ArsR protein binding site was bound to a support in the same way as presented in example 6 above.
# A solution containing the ArsRFlagN-6His protein (SEQ ID NO. 22) was added according to the protocol presented in example 7 above, to enable the protein to bind with the DNA.
# 5 dilutions of arsenic solution, at 0 μg/L, 2 μg/L, 3 μg/L, 4 μg/L, and 5 μg/L respectively, were prepared in PBS to provide a control sample range. 100 μl of each of these dilutions were added respectively in a microplate well.
# The microplate was incubated for 60 minutes at 25° C., to enable the arsenic to bind with the ArsRFlagN-6His proteins (SEQ ID NO. 22).
# The unbound ArsRFlagN-6His proteins (SEQ ID NO. 22) were eliminated by three successive washed using 300 μl of PBST per well.
# 100 μl of a solution of anti-Flag antibody (Ref. A9469, Sigma Aldrich, Saint-Quentin Fallavier, France), conjugated with alkaline phosphatase, were added in each wells. The antibody was previously diluted in PBST in compliance with the supplier's recommendations (dilution factor 1/500). The microplate was incubated for 60 minutes at 25° C. to enable the antibody to bind with the ArsRFlagN-6His proteins.
# The unbound anti-Flag antibodies were eliminated by three successive washes using 300 μl of PBST per well.
# A CDP* solution at 0.25 mM was prepared in buffer 1. 100 μl of CDP* solution were placed in the different assay wells. The light emitted was immediately measured using a luminometer (LumiStar, BMG Lab Technologies).
# [4] = Storage stability of purified ArsRFlagN-6His protein; type: physicochemical
# Protocol: The ArsRFlagN-6His protein (SEQ ID NO. 22) was purified by affinity chromatography (IMAC). An Ni-NTA column was balanced with PBS buffer+10 mM of imidazole. The clear lysate was deposited on the column. The buffer was eluted by gravity. The column was firstly washed using PBS buffer+10 mM of imidazole (10 column volumes) and secondly using PBS buffer+20 mM of imidazole. The ArsR protein was eluted using an imidazole gradient in PBS buffer (PBS buffer with increasing concentrations of imidazole: 30 to 400 mM). The fractions collected were analysed (SDS-PAGE gel). Fractions that contained the greatest quantity of protein were stored at 4° C. (3 ml of PBS buffer, imidazole 300 mM, pH 7.5). ArsR protein concentration was of 1 mg/ml. The protein is stable for 15 days at 4° C. It can be stored for several weeks at lower temperatures (−20 and −80° C.) in the presence of a cryoprotector (glycerol at 50%, volume/volume).
molecule,measurement,setting,value
[AsH3] [arsenic],amount of arsenic ingested causing acute intoxication,[1],1 to 2 mg/kg/day
arsenite [AsIII],Luminescence value (L),[2]; AsIII 0.005 μM (0.375 μg/L),"6,426"
same,logL,[2]; AsIII 0.005 μM (0.375 μg/L),3.81
same,Luminescence value (L),[2]; AsIII 0.01 μM (0.750 μg/L),"5,808"
same,logL,[2]; AsIII 0.01 μM (0.750 μg/L),3.76
same,Luminescence value (L),[2]; AsIII 0.025 μM (1.875 μg/L),"5,023"
same,logL,[2]; AsIII 0.025 μM (1.875 μg/L),3.70
same,Luminescence value (L),[2]; AsIII 0.100 μM (7.500 μg/L),"4,422"
same,logL,[2]; AsIII 0.100 μM (7.500 μg/L),3.65
same,Luminescence value (L),[2]; AsIII 0.250 μM (18.750 μg/L),"3,776"
same,logL,[2]; AsIII 0.250 μM (18.750 μg/L),3.58
same,Luminescence value (L),[2]; AsIII 0.500 μM (37.500 μg/L),"2,831"
same,logL,[2]; AsIII 0.500 μM (37.500 μg/L),3.45
same,Luminescence value (L),[3]; AsIII 0.027 μM (2 μg/L),"4,710"
same,logL,[3]; AsIII 0.027 μM (2 μg/L),3.6730
same,Luminescence value (L),[3]; AsIII 0.040 μM (3 μg/L),"4,457"
same,logL,[3]; AsIII 0.040 μM (3 μg/L),3.6490
same,Luminescence value (L),[3]; AsIII 0.053 μM (4 μg/L),"4,061"
same,logL,[3]; AsIII 0.053 μM (4 μg/L),3.6086
same,Luminescence value (L),[3]; AsIII 0.067 μM (5 μg/L),"3,906"
same,logL,[3]; AsIII 0.067 μM (5 μg/L),3.5917
B1,time the protein is stable,"[4]; 4° C., PBS buffer, imidazole 300 mM, pH 7.5, 1 mg/ml",15 days
same,time the protein can be stored,"[4]; −20 and −80° C., in the presence of glycerol at 50% (volume/volume)",several weeks
